Reference: patent publication US5384119A, “Method of preventing neutrophil mediated connective tissue damage” (Merrell Dow Pharmaceuticals Inc., priority 1993, dated 1995)
Read-outs that look alike come from different tables or passages of the source.

Tests used:
cathepsin G [1] = biological target: T1, cathepsin G (Homo sapiens, UniProt P08311); assay: Cathepsin G mediated degradation of 35S-labeled cartilage matrix proteoglycan (CPG); assay type: biochemical; details: cartilage discs, 4 hours at 37° C., FIG. 4
T1 construct: Both purified human neutrophil elastase and cathepsin G degrade CPG; from tissue; host or cells: human neutrophils
T1 sequence (P08311 21-244 limits assumed): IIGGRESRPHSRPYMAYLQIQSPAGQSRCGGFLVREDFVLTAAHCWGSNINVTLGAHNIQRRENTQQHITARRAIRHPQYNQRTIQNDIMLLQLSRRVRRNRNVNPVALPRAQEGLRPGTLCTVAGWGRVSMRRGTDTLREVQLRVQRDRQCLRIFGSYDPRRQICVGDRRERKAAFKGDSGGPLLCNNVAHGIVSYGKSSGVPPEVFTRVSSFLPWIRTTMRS
Protocol: (§1) Fresh bovine nasal septa were obtained from a local abattoir and 4 mm cartilage cylinders were prepared using a No. 2 cork borer. The cylinders were sliced into 1 mm discs. The top and bottom discs were discarded and the remaining cartilage discs were pooled, washed three times in HBSS and resuspended in Dulbecco's Modified Eagles Medium (DMEM) with antibiotics and supplements. The sulfated sugars that constitute the glycosaminoglycan side chains of cartilage proteoglycan were radiolabeled by the addition of 10 μCi/ml of Na2^35 SO4 followed by incubation overnight at 37° C. with gentle rocking. […]
(§2) The ability of neutrophil proteases to degrade connective tissue matrix was measured by incubating ^35 S-radiolabeled cartilage discs with neutrophil lysate, purified elastase or cathepsin G in serumless media for 4 hours at 37° C. and collecting the supernatants and counting the radiolabeled material in the supernatants and discs. The radioactivity remaining in the cartilage discs after removal of the supernatant was assayed by completely digesting the discs in 6M HCl at 100° C. for 1 hour, removing the HCl by vacuum evaporation and resuspending the dried material in 0.5 ml HBSS. Supernatants and processed discs were counted in a Beckman LS 3801 scintillation counter. The data were expressed as the percent at ^35 S label released into the supernatant. […]

[2] = biological target: T2, purified human neutrophil elastase (Homo sapiens, UniProt P08246); assay: Elastase mediated degradation of 35S-labeled cartilage matrix proteoglycan (CPG); assay type: biochemical; details: cartilage discs, 4 hours at 37° C., FIG. 3
T2 construct: Both purified human neutrophil elastase and cathepsin G degrade CPG; from tissue; host or cells: human neutrophils
T2 sequence (P08246 30-247 limits assumed): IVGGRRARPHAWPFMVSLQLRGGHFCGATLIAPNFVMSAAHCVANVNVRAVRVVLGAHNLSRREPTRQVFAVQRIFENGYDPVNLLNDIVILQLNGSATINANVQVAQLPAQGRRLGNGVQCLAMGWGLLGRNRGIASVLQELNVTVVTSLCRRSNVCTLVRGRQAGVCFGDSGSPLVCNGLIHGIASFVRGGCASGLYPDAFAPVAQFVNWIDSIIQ
Protocol: as §1, §2

cathepsin G [3] = biological target: T1, cathepsin G; assay: Cathepsin G cleavage of synthetic substrate N-succinyl-Ala-Pro-Phe-p-nitroanalide; assay type: biochemical; details: 2 micrograms of cathepsin G, FIG. 2, read-out: IC50 for the inhibition of cathepsin G
Protocol: (§3) Elastase activity is assayed using the specific substrate, N-methoxysuccinyl-Ala-Ala-Pro-Val-p-nitroanalide, and cathepsin G activity was measured using N-succinyl-Ala-Pro-Phe-p-nitroanalide. The assay buffer, 0.1M HEPES with 0.5M NaCl and 0.1% Brij-35, is used to dilute the elastase substrate to a final concentration of 0.2 mM and the cathepsin G substrate to 1 mM. The appropriate substrate in 2 ml of assay buffer is incubated at 37° C. in a heated spectrophotometer cell and the reaction is started by the addition of enzyme. In experiments where inhibitors were tested, the inhibitors were incubated with the enzyme for 5 min before the addition of substrate. […] was continuously monitored at 410 nm using a diode array spectrophotometer. Kinetic constants were determined using the kinetics software of the spectrophotometer.
(§4) The ability of several sulfated polymers to inhibit elastase and cathepsin G degradation of their respective substrates was examined. MDL-101,028, a compound falling within the scope of the claimed invention, where the value of n is 6, and 4,4'-Diisothiocyanatostilbene-2,2'-disulfonic acid, internally identified as MDL-101,114 (DIDS) inhibited both elastase and cathepsin G in a dose-dependent manner.

elastase = biological target: T3, elastase (Homo sapiens, UniProt P08246); assay: Elastase cleavage of synthetic substrate N-methoxysuccinyl-Ala-Ala-Pro-Val-p-nitroanalide; assay type: biochemical; details: 2 μg of elastase, FIG. 1, read-out: IC50 for the inhibition of elastase
T3 sequence (P08246 30-247 limits assumed): T2 sequence (P08246 30-247 limits assumed)
Protocol: as §3, §4

Human neutrophils [4] = assay: Primary granule enzyme secretion (myeloperoxidase release) from neutrophils; assay type: cell-based; details: stimulated neutrophils
Protocol: (§5) Radiolabeled cartilage discs were placed into the wells of 96-well microtiter plates and overlayed with human neutrophils suspended in DMEM containing 10% FCS. The neutrophils were stimulated by the addition of 1 mg/ml of opsonized zymosan and incubated for 4 hours at 37° C. with 5% CO2. Connective tissue matrix degradation was quantitated by the amount of radiolabel released. In experiments using protease inhibitors, the inhibitors were added immediately after the neutrophils. The viability of the neutrophils incubated with the protease inhibitors was determined by assaying the supernatants for lactic dehydrogenase (LDH) and by neutrophil exclusion of trypan blue. In addition, the effect of protease inhibitors on primary granule enzyme secretion was monitored by measuring the release of myeloperoxidase.
(§6) The percentage of neutrophils stimulated with zymosan in media for 4 hours that excluded trypan blue was 85% compared to 77%-87% for neutrophils incubated with MDL-101,028 at doses of 4, 10, and 25 μM, respectively. This correlated with LDH release which was 9% for stimulated neutrophils treated with media, compared to 7-11% for neutrophils incubated with MDL-101,028 at concentrations of 4-25 μM.

[5] = tested on: human neutrophil elastase; assay: Elastase induced pulmonary hemorrhage in rats; assay type: in vivo, Male Sprague Dawley rats; details: rat; for Inhibition of lung hemorrhage (hemoglobin in lavage fluid): 100 μg elastase, FIG. 7; for Inhibition of lung hemorrhage: intratracheal, FIG. 8
Protocol: Male Sprague Dawley rats were anesthetized with chloral hydrate (300 mg/kg) and either saline or human neutrophil elastase was administered intratracheally. Briefly, rats were placed on a surgical board, ventral side up, and their mouths held open using a rubber band placed over their incisors. The tongue was held to the side and 100 micro liters of elastase solution (1 mg/ml) was administered into the trachea with the aid of a bright light source and a 3 inch, 22 gauge blunt-end needle. One hour after elastase administration, the rats were sacrificed using CO2 and the trachea was surgically exposed and cannulated. The lungs were lavaged with 10 ml of saline and the hemoglobin content was-determined using the cyanmethemoglobin assay. In experiments where inhibitors were tested, the compounds were given intratracheally in 100 μl of saline at various times before elastase administration.
Intratracheal instillation of human leukocyte elastase produced acute lung injury as assessed by hemorrhage (FIG. 7). The hemorrhage was quantified by measuring the hemoglobin content of the pulmonary lavage fluid. […] When MDL-101,028 was administered intratracheally immediately before elastase (within 30 seconds) at doses of 280 μg, 700 μg, or 2800 μg, lung hemorrhage was inhibited by 48%, 90%, and 90% respectively (FIG. 7).
MDL-101,028 was administered to rats at various time intervals before instillation of elastase to determine the duration of action.

Human neutrophil lysate = Human neutrophil lysate mediated degradation of CPG; assay type: biochemical; details: lysate 1:100, 4 hour at 37° C., FIG. 5
Protocol: Human neutrophil granule lysates were prepared by resuspending 2.5×10^8 in 4 ml of […] sucrose and sonicating for 30 seconds using a microtip probe. […] The neutrophil lysate was centrifuged at 1000×g for 10 min. at 4° C., the supernatant was collected and centrifuged at 30,000×g for 30 min. at 4° C. and the pellet containing neutrophil granules was resuspended in 2 ml of 0.05M sodium acetate buffer, pH 5.5, containing 1M NaCl and 0.1% Brij-35 and kept on ice for 30 min. with several brief sonications of approximately 30 seconds during the incubation period. […] The granule lysate was centrifuged at 30,000×g for 30 min. at 4° C. and the supernatant was collected, tested for elastase and cathepsin G content using synthetic substrates as described above, aliquoted and stored at […] until used.
Fresh bovine nasal septa were obtained from a local abattoir and 4 mm cartilage cylinders were prepared using a No. 2 cork borer. The cylinders were sliced into 1 mm discs. The top and bottom discs were discarded and the remaining cartilage discs were pooled, washed three times in HBSS and resuspended in Dulbecco's Modified Eagles Medium (DMEM) with antibiotics and supplements. […]
as §2

Human neutrophils [6] = assay: Neutrophil viability (trypan blue exclusion, lactic dehydrogenase release); assay type: cell-based
Protocol: as §5, §6

Row | SMILES | IC50 (cathepsin G [1]; read-out: IC50, cathepsin G mediated cartilage degradation) [µM] | IC50 ([2]; read-out: IC50, elastase mediated cartilage degradation) [µM] | IC50 (cathepsin G [3]) [µM] | IC50 (elastase) [µM] | IC50 (cathepsin G [1]; read-out: IC50, cathepsin G mediated CPG degradation) [µM] | IC50 ([2]; read-out: IC50, elastase mediated CPG degradation) [µM] | Myeloperoxidase release from neutrophils (Human neutrophils [4]) | Inhibition of lung hemorrhage (hemoglobin in lavage fluid) ([5]; 280 μg intratracheally immediately before elastase (within 30 seconds)) [%] | Inhibition of lung hemorrhage (hemoglobin in lavage fluid) ([5]; 700 μg intratracheally immediately before elastase (within 30 seconds)) [%] | Inhibition of lung hemorrhage (hemoglobin in lavage fluid) ([5]; 2800 μg intratracheally immediately before elastase (within 30 seconds)) [%] | Inhibition of lung hemorrhage ([5]; administered 1 hour before elastase) [%] | Inhibition of lung hemorrhage ([5]; administered 2 hours before elastase) [%] | Inhibition of lung hemorrhage ([5]; administered 4 hours before elastase) [%] | Duration of action ([5]; intratracheal route) | Inhibition of CPG degradation by neutrophil lysate (Human neutrophil lysate; 4 μmolar) [%] | Inhibition of CPG degradation by neutrophil lysate (Human neutrophil lysate; 10 μmolar) [%] | Inhibition of CPG degradation by neutrophil lysate (Human neutrophil lysate; 25 μmolar) [%] | LDH release (Human neutrophils [6]; concentrations of 4-25 μM, stimulated neutrophils (media control 9%), 240 min) | Percentage of neutrophils that excluded trypan blue (Human neutrophils [6]; doses of 4, 10, and 25 μM, zymosan stimulated, 4 hours (media control 85%)) | Viability of the neutrophils (Human neutrophils [6]; trypan blue exclusion and lactic dehydrogenase release)
1 | O=S(=O)(O)c1cc(N=C=S)ccc1C=Cc1ccc(N=C=S)cc1S(=O)(=O)O [DIDS, 4,4'-Diisothiocyanatostilbene-2,2'-disulfonic acid, reference compound] | 50 | 38 | 1.4 | 1.1 | – | – | – | – | – | – | – | – | – | – | – | – | – | – | – | –
2 | Cc1ccc(NC(=O)Nc2ccc(-c3ccc(NC(=O)Nc4ccc(-c5ccc(NC(=O)Nc6ccc(-c7ccc(NC(=O)Nc8ccc(-c9ccc(NC(=O)Nc%10ccc(-c%11ccc(NC(=O)Nc%12ccc(-c%13ccc(NC(=O)Nc%14ccc(C)cc%14)cc%13S(=O)(=O)O)c(S(=O)(=O)O)c%12)cc%11S(=O)(=O)O)c(S(=O)(=O)O)c%10)cc9S(=O)(=O)O)c(S(=O)(=O)O)c8)cc7S(=O)(=O)O)c(S(=O)(=O)O)c6)cc5S(=O)(=O)O)c(S(=O)(=O)O)c4)cc3S(=O)(=O)O)c(S(=O)(=O)O)c2)cc1 [MDL-101,028] | – | – | 0.08 | 0.04 | ~9 | ~8 | not inhibited | 48 | 90 | 90 | 61 | 63 | 20 | greater than two hours and less than four hours | 54 | 70 | 79 | 7-11% | 77%-87% | not diminished
